Source: patent US6982334B2, “Crystalline form of (3R,4R)-4-[3-(S)-hydroxy-3-(6-methoxyquinolin-4-yl)propyl]-1-[2-(2-thienylthio)ethyl]piperindine-3-carboxylic acid” (Aventis Pharma S.A., priority 2002, dated 2006)

How the values were obtained:
[1] = Stability at high temperature of the crystalline form; format: physicochemical; details: up to its melting point
[2] = format: physicochemical
[3] = Loss in mass (dehydration) of monohydrate form C at low humidity; format: physicochemical; details: below 50% humidity and between 20° C. and 80° C.; 1 mole of water/mole of the acid
Method: According to another aspect of the present invention, form A can also be obtained from another monohydrate crystalline form known hereinbelow as form C. Below 50% humidity and between 20° C. and 80° C., form C undergoes a loss in mass of 3.7% by weight (1 mole of water/mole of the acid). […] Form B is obtained more particularly by heating form C to 70° C. or from form C held at 25° C. at 0% humidity.

hygroscopicity ([2]; solid crystalline form)	state after storage ([2]; storage at 97% relative humidity for 11 weeks at 20° C.)	loss in mass (dehydration to form B) [3] [% by weight]	Compound	stability at high temperature [1]
not hygroscopic	still anhydrous and stable		COc1ccc2nccc([C@@H](O)CC[C@@H]3CCN(CCSc4cccs4)C[C@@H]3C(=O)O)c2c1 [Form A, (3R,4R)-4-[3-(S)-hydroxy-3-(6-methoxyquinolin-4-yl)propyl]-1-[2-(2-thienylthio)ethyl]piperidine-3-carboxylic acid]	stable at high temperature, namely up to its melting point
		3.7	COc1ccc2nccc([C@@H](O)CC[C@@H]3CCN(CCSc4cccs4)C[C@@H]3C(=O)O)c2c1 [Form C, (3R,4R)-4-[3-(S)-hydroxy-3-(6-methoxyquinolin-4-yl)propyl]-1-[2-(2-thienylthio)ethyl]piperidine-3-carboxylic acid]	
